In US9474790B2, “Stable, protracted GLP-1/glucagon receptor co-agonists for medical use” (Novo Nordisk A/S, priority 2013, dated 2016):
pIC50: −log10 of the molar value. Numbered stars: 1 amine (or outer) side, 2 acyl side, 3 side chain; on linkers, the order of the positions; unused ones are H or OH. Bridge positions count the residues as written; N and C are the ends. Square brackets hold non-standard residues; d marks the D form. Side chains are listed from the residue outwards. Peptide text beside a SMILES is read from it. I, II: the chains in the order shown. * marks the point of attachment. C18 diacid = O=C(O)CCCCCCCCCCCCCCCCC(=O)*; γGlu = O=C(O)[C@H](CCC(=O)[*:2])N[*:1]; Ac4c = NC1(C(=O)O)CCC1; AEEA = NCCOCCOCC(=O)O; Aib = CC(C)(N)C(=O)O

Key:
[1] = molecular target: T1, human GLP-1 receptor (Homo sapiens, UniProt P43220); assay: GLP-1 receptor binding, 125I-GLP-1 displacement SPA on isolated membranes; conditions: displacement of 125I-GLP-1 from membranes; read-out: IC50 GLP-1R
T1 construct: expressed in transfected cells; host or cells: BHK cells (parent BHKTS13), clone FCW467-12A/KZ10-1, with CRE luciferase
Method in brief: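 Test derivatives, serially diluted, competed with 125I-GLP-1(7-36)NH2 for the human GLP-1 receptor on BHK membranes, read by WGA-bead scintillation proximity after 2 h at 30°C, pH 7.4 HEPES/EGTA/MgCl2 buffer. Final serum albumin was either ≤0.001% or 2.0%; IC50 from non-linear fit.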

[2] = Chemical stability assessment by RP-UPLC; assay type: physicochemical; conditions: 333 μM, 8 mM phosphate buffer pH 7.3, 37° C. vs 5° C.
Method in brief: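 Purity loss = (purity after 14 days at 5° C. minus that at 37° C.) relative to the 5° C. value, purity being main-peak area % by RP-UPLC with UV at 215 nm. Samples were 333 μM in 8 mM phosphate, pH 7.3; gradient adjusted for outlying retention times.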

T1 sequence (P43220 24-463): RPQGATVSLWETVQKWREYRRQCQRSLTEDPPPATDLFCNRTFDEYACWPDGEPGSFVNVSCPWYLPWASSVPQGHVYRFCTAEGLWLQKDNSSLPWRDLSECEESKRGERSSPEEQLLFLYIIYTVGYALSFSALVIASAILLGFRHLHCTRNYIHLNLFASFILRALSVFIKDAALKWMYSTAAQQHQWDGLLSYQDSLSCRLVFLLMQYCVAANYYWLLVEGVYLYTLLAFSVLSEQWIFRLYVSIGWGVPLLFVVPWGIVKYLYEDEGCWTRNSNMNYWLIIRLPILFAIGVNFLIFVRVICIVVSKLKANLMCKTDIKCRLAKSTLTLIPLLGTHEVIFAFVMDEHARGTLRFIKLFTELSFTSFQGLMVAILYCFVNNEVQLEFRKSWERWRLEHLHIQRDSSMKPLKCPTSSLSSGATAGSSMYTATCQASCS

Row | pIC50 [1] | Purity loss; 14 days at 37° C. [2] | Compound
1 | 9.05 | 5% | CC(C)C[C@H](NC(=O)[C@H](Cc1ccc(O)cc1)NC(=O)[C@H](CCCCN)NC(=O)[C@H](CO)NC(=O)[C@H](CC(C)C)NC(=O)[C@H](CC(=O)O)NC(=O)[C@H](CO)NC(=O)[C@@H](NC(=O)[C@H](Cc1ccccc1)NC(=O)[C@@H](NC(=O)CNC(=O)[C@H](Cc1c[nH]cn1)NC(=O)C(C)(C)NC(=O)[C@@H](N)Cc1c[nH]cn1)[C@@H](C)O)[C@@H](C)O)C(=O)N[C@@H](CCC(=O)O)C(=O)N[C@@H](CO)C(=O)N[C@@H](CCCCN)C(=O)N[C@@H](CCCNC(=N)N)C(=O)N[C@@H](C)C(=O)N[C@@H](CCCNC(=N)N)C(=O)N[C@@H](CCC(=O)O)C(=O)N[C@@H](Cc1ccccc1)C(=O)N[C@H](C(=O)N[C@@H](CCC(N)=O)C(=O)N[C@@H](Cc1c[nH]c2ccccc12)C(=O)N[C@@H](CC(C)C)C(=O)N[C@@H](CC(C)C)C(=O)N[C@@H](CCCCNC(=O)CC[C@H](NC(=O)CC[C@H](NC(=O)COCCOCCNC(=O)COCCOCCNC(=O)CC[C@H](NC(=O)CCCCCCCCCCCCCCCCC(=O)O)C(=O)O)C(=O)O)C(=O)O)C(=O)N[C@H](C(N)=O)[C@@H](C)O)C(C)C [Example 27, N^ε28-[(4S)-4-carboxy-4-[[(4S)-4-carboxy-4-[[2-[2-[2-[[2-[2-[2-[[(4S)-4-carboxy-4-(17-carboxyheptadecanoylamino)butanoyl]amino]ethoxy]ethoxy]acetyl]amino]ethoxy]ethoxy]acetyl]amino]butanoyl]amino]butanoyl]-[Aib2,His3,Leu10,Glu15,Lys17,Arg20,Glu21,Leu27, Lys28]-Glucagon amide] (H-H[Aib]HGTFTSDLSKYLESKRAREFVQWLLK([γGlu-γGlu-AEEA-AEEA-γGlu-C18 diacid])T-NH2; N-terminus assumed)
2 | 9.70 | 5% | CC(C)C[C@H](NC(=O)[C@H](Cc1ccc(O)cc1)NC(=O)[C@H](CCCCN)NC(=O)[C@H](CO)NC(=O)[C@H](CC(C)C)NC(=O)[C@H](CC(=O)O)NC(=O)[C@H](CO)NC(=O)[C@@H](NC(=O)[C@H](Cc1ccccc1)NC(=O)[C@@H](NC(=O)CNC(=O)[C@H](Cc1c[nH]cn1)NC(=O)C(C)(C)NC(=O)[C@@H](N)Cc1c[nH]cn1)[C@@H](C)O)[C@@H](C)O)C(=O)N[C@@H](CCC(=O)O)C(=O)N[C@@H](CO)C(=O)N[C@@H](CCCCN)C(=O)N[C@@H](CCCNC(=N)N)C(=O)N[C@@H](C)C(=O)N[C@@H](CCCNC(=N)N)C(=O)N[C@@H](CCC(=O)O)C(=O)N[C@@H](Cc1ccccc1)C(=O)N[C@H](C(=O)N[C@@H](CCC(N)=O)C(=O)N[C@@H](Cc1c[nH]c2ccccc12)C(=O)N[C@@H](CC(C)C)C(=O)N[C@@H](CC(C)C)C(=O)N[C@@H](CCCCNC(=O)CC[C@H](NC(=O)CC[C@H](NC(=O)CC[C@H](NC(=O)CCCCCCCCCCCCCCCCC(=O)O)C(=O)O)C(=O)O)C(=O)O)C(=O)N[C@H](C(N)=O)[C@@H](C)O)C(C)C [Example 34, N^ε28-[(4S)-4-carboxy-4-[[(4S)-4-carboxy-4-[[(4S)-4-carboxy-4-(17-carboxyheptadecanoylamino)butanoyl]amino]butanoyl]amino]butanoyl]-[Aib2,His3,Leu10,Glu15,Lys17,Arg20,Glu21,Leu27,Lys28]-Glucagon amide] (H-H[Aib]HGTFTSDLSKYLESKRAREFVQWLLK([γGlu-γGlu-γGlu-C18 diacid])T-NH2; N-terminus assumed)
3 | 9.70 | 2% | CC(C)C[C@H](NC(=O)[C@H](Cc1ccc(O)cc1)NC(=O)[C@H](CCCCN)NC(=O)[C@H](CO)NC(=O)[C@H](CC(C)C)NC(=O)[C@H](CC(=O)O)NC(=O)[C@H](CO)NC(=O)[C@@H](NC(=O)[C@H](Cc1ccccc1)NC(=O)[C@@H](NC(=O)CNC(=O)[C@H](CCC(N)=O)NC(=O)C1(NC(=O)[C@@H](N)Cc2c[nH]cn2)CCC1)[C@@H](C)O)[C@@H](C)O)C(=O)N[C@@H](CCC(=O)O)C(=O)N[C@@H](CO)C(=O)N[C@@H](CCCCN)C(=O)N[C@@H](CCCNC(=N)N)C(=O)N[C@@H](C)C(=O)N[C@@H](CCCNC(=N)N)C(=O)N[C@@H](CCC(=O)O)C(=O)N[C@@H](Cc1ccccc1)C(=O)N[C@H](C(=O)N[C@@H](CCC(N)=O)C(=O)N[C@@H](Cc1c[nH]c2ccccc12)C(=O)N[C@@H](CC(C)C)C(=O)N[C@@H](CC(C)C)C(=O)N[C@@H](CCCCNC(=O)CNC(=O)[C@H](CO)NC(=O)[C@H](CCC(=O)O)NC(=O)CNC(=O)[C@H](CO)NC(=O)CC[C@H](NC(=O)CC[C@H](NC(=O)CCCCCCCCCCCCCCCCC(=O)O)C(=O)O)C(=O)O)C(=O)N[C@H](C(N)=O)[C@@H](C)O)C(C)C [Example 36, N^ε28-[2-[[(2S)-2-[[(2S)-4-carboxy-2-[[2-[[(2S)-2-[[(4S)-4-carboxy-4-[[(4S)-4-carboxy-4-(17-carboxyheptadecanoylamino)butanoyl]amino]butanoyl]amino]-3-hydroxypropanoyl]amino]acetyl]amino]butanoyl]amino]-3-hydroxypropanoyl]amino]acetyl]-[Acb2,Leu10,Glu15,Lys17, Arg20,Glu21,Leu27,Lys28]-Glucagon amide] (I: H-H[Ac4c]QGTFTSDLSKYLESKRAREFVQWLLKT-NH2 / II: {C18 diacid-γGlu-γGlu}-SGESG; amide I:28-II:C; N-terminus assumed)
4 | 9.52 | 3% | CC(C)C[C@H](NC(=O)[C@H](Cc1ccc(O)cc1)NC(=O)[C@H](CCCCN)NC(=O)[C@H](CO)NC(=O)[C@H](CC(C)C)NC(=O)[C@H](CC(=O)O)NC(=O)[C@H](CO)NC(=O)[C@@H](NC(=O)[C@H](Cc1ccccc1)NC(=O)[C@@H](NC(=O)CNC(=O)[C@H](CCC(N)=O)NC(=O)C(C)(C)NC(=O)[C@@H](N)Cc1c[nH]cn1)[C@@H](C)O)[C@@H](C)O)C(=O)N[C@@H](CC(=O)O)C(=O)N[C@@H](C)C(=O)N[C@@H](CCCNC(=N)N)C(=O)N[C@@H](CCCNC(=N)N)C(=O)N[C@@H](C)C(=O)N[C@@H](CCCNC(=N)N)C(=O)N[C@@H](CCC(=O)O)C(=O)N[C@@H](Cc1ccccc1)C(=O)N[C@H](C(=O)N[C@@H](CCC(N)=O)C(=O)N[C@@H](Cc1c[nH]c2ccccc12)C(=O)N[C@@H](CC(C)C)C(=O)N[C@@H](CC(C)C)C(=O)N[C@@H](CC(N)=O)C(=O)N[C@@H](CCCCNC(=O)CC[C@H](NC(=O)CC[C@H](NC(=O)COCCOCCNC(=O)CC[C@H](NC(=O)CCCCCCCCCCCCCCCCC(=O)O)C(=O)O)C(=O)O)C(=O)O)C(N)=O)C(C)C [Example 39, N^ε29-[(4S)-4-carboxy-4-[[(4S)-4-carboxy-4-[[2-[2-[2-[[(4S)-4-carboxy-4-(17-carboxyheptadecanoylamino)butanoyl]amino]ethoxy]ethoxy]acetyl]amino]butanoyl]amino]butanoyl]-[Aib2,Leu10,Ala16,Arg20,Glu21,Leu27,Lys29]-Glucagon amide] (H-H[Aib]QGTFTSDLSKYLDARRAREFVQWLLNK([γGlu-γGlu-AEEA-γGlu-C18 diacid])-NH2; N-terminus assumed)
